Assay results taken from patent US10246442B2, “4-Aminoquinazolin compounds as prolyl hydroxylase inhibitors” (JANSSEN PHARMACEUTICA NV, priority 2011, dated 2019).

How the values were obtained:
[1] = test system: Erythropoietin secretion, Hep-3B cells; experiment: Cellular assay: EPO secretion in Hep-3B cells; type: cell-based; details: Homo sapiens, Hep3B, 100 μM compound, 24 hours, percent of EPO secretion relative to assay control compound 7-[(4-Chloro-phenyl)-(5-methyl-isoxazol-3-ylamino)-methyl]-quinolin-8-ol, read-out: Cellular % EPO Stimulation
Outline: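 Compounds at 100 μM final were added to Hep-3B cells 24 h after plating and left for 24 h. Secreted EPO in supernatant measured by MSD electrochemiluminescence immunoassay. Reported as percent EPO secretion relative to an 8-hydroxyquinoline reference control compound.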

PHD2181-417 = PHD2181-417 (Homo sapiens (Human), UniProt Q9GZT9); experiment: PHD enzymatic assay ([14C]-succinic acid production); type: biochemical; details: purified PHD2181-417, HIF-1α peptide substrate, 30 min pre-incubation; average of results
Outline: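 Recombinant human PHD2 (aa 181-417, E. coli-expressed, tags cleaved) with peptide substrate (10 μM) and [5-14C]-2-oxoglutarate in Tris pH 7.5 with catalase, DTT and ascorbate, 10 min reaction after 30 min compound pre-incubation; compounds at 100 μM final, 1% DMSO. [14C]-succinate separated by DNP precipitation and beta-counted; IC50 from three-parameter logistic fit.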

HIF1-α, Hela cells = experiment: Cellular assay for HIF1-α in Hela cells; type: cell-based; details: Homo sapiens, 100 μM compound, 6 hours, percent of HIF stimulation relative to assay control compound 7-[(4-Chloro-phenyl)-(5-methyl-isoxazol-3-ylamino)-methyl]-quinolin-8-ol
Procedure: Cellular Assay for HIF1-α
Hela cells (ATCC, Manassas, Va.) were plated in 96-well plates at 20,000 cells per well in 100 μl of DMEM containing 10% fetal bovine serum, 1% non-essential amino acids, 50 IU/mL of penicillin and 50 μg/mL of streptomycin (all cell culture reagents from Invitrogen, Carlsbad, Calif.). 24 hours after plating, changed media to 100 ul of DMEM without 10% fetal bovine serum, 1.1 μl of the stock solution for each compound was added and incubated for 6 hours. All compounds were tested with a final compound concentration of 100 μM. The supernatant was removed and the cells were lysed in 55 μl of MSD lysis buffer containing protease inhibitors. 50 μl of the cell lysate was then transferred to a blocked MSD human HIF-1α detection plate (Meso-Scale Discovery, Gaithersburg, Md., as per manufacturers protocol), and incubated at room temperature on an orbital shaker for 2 hour. After 3 washes in PBS, 25 μl of 20 nM anti-HIF1α a detection antibody was added and incubated for 1 hour at room temperature on an orbital shaker. After 3 washes in PBS, 150 μl of 1× read buffer was added and the plate was then read on a MSD SECTOR instrument. Data was analyzed by determining the percent of HIF stimulation in the presence of 100 μM compound relative to an assay control compound, 7-[(4-Chloro-phenyl)-(5-methyl-isoxazol-3-ylamino)-methyl]-quinolin-8-ol.

Chain of PHD2181-417 (Q9GZT9 181-417): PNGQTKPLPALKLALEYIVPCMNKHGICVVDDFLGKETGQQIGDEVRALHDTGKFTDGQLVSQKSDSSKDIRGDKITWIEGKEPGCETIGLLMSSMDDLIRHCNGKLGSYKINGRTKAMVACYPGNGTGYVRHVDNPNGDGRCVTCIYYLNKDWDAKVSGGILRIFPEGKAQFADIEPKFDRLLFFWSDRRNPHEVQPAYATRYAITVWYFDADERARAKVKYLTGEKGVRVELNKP

Row | Compound | activation at 100 µM [1] [%] | Enzyme pIC50 (PHD2181-417) | activation at 100 µM (HIF1-α, Hela cells) [%]
1 | O=C(O)c1cnn(-c2nc(N3CCCC3)c3ccc(Oc4ccccc4)cc3n2)c1 [Example 78, 1-(7-Phenoxy-4-(pyrrolidin-1-yl)quinazolin-2-yl)-1H-pyrazole-4-carboxylic acid] | 38 | 7.3 | 64
2 | CCN(CC)c1nc(-n2cc(C(=O)O)cn2)nc2ccc(N3CCCCC3)cc12 [Example 88, 1-(4-(Diethylamino)-6-(piperidin-1-yl)quinazolin-2-yl)-1H-pyrazole-4-carboxylic acid] | 94 | 7.0 | 122
3 | O=C(O)c1cnn(-c2nc(N3CCCC3)c3cc(-c4ccccc4)ccc3n2)c1 [Example 43, 1-(6-Phenyl-4-(pyrrolidin-1-yl)quinazolin-2-yl)-1H-pyrazole-4-carboxylic acid] |  | 7.3 | 57
4 | Cc1cccc(C)c1Oc1cc2c(N3CCC(O)CC3)nc(-n3cc(C(=O)O)cn3)nc2cc1F [Example 19, 1-(6-(2,6-Dimethylphenoxy)-7-fluoro-4-(4-hydroxypiperidin-1-yl)quinazolin-2-yl)-1H-pyrazole-4-carboxylic acid] |  | 6.9 | 140
5 | N#CC1CCN(c2nc(-n3cc(C(=O)O)cn3)nc3ccc(-c4ccccc4)cc23)CC1 [Example 59, 1-(4-(4-Cyanopiperidin-1-yl)-6-phenylquinazolin-2-yl)-1H-pyrazole-4-carboxylic acid] |  | 6.4 | 45
6 | O=C(O)c1cnn(-c2nc(N3CCSCC3)c3ccc(Oc4ccccc4)cc3n2)c1 [Example 90, 1-(7-Phenoxy-4-thiomorpholinoquinazolin-2-yl)-1H-pyrazole-4-carboxylic acid] |  | 6.3 | 7.7
7 | O=C(O)c1cnn(-c2nc(N3CCC(F)CC3)c3cc(C4CCCCC4)ccc3n2)c1 [Example 31, 1-(6-Cyclohexyl-4-(4-fluoropiperidin-1-yl)quinazolin-2-yl)-1H-pyrazole-4-carboxylic acid] |  | 7.1 | 34
8 | O=C(O)c1cnn(-c2nc(N3CCCCCC3)c3cc(-c4ccccc4)ccc3n2)c1 [Example 48, 1-(4-(Azepan-1-yl)-6-phenylquinazolin-2-yl)-1H-pyrazole-4-carboxylic acid] |  | 7.2 | 23
9 | CC(C)(C)Nc1nc(-n2cc(C(=O)O)cn2)nc2ccc(Oc3ccccc3)cc12 [Example 72, 1-(4-(tert-Butylamino)-6-phenoxyquinazolin-2-yl)-1H-pyrazole-4-carboxylic acid] |  | 6.7 | 32
10 | O=C(O)c1cnn(-c2nc(Nc3ccccc3Cl)c3cc(-c4ccccc4)ccc3n2)c1 [Example 47, 1-(4-((2-Chlorophenyl)amino)-6-phenylquinazolin-2-yl)-1H-pyrazole-4-carboxylic acid] |  | 6.6 | 10
